Measurements reported in patent US20250042908A1, “SALTS FOR MTOR COMPOUNDS” (GALDERMA HOLDING S.A., priority 2022, published 2025).
Counter-ions that a name gives are not always drawn. Like-named read-outs stand apart in the source and are kept apart here.

Key:
[1] = Solubility of free base and salts in 6 different media (UPLC-UV); format: physicochemical; conditions: target concentration 30 mg/ml; for solubility at 24 h: thermodynamic from solid
Description: The following protocol has been used to prepare samples for solubility measurements at room temperature in the 6 different media. First, weigh appropriate amount of each salt and free base compound to reach the desired target concentration (30 mg/ml). Addition at room temperature the studied media to reach the selected target concentration, follow by orbital stirring at room temperature for 24 h, while protected from light. Except for the glycerin medium, separation of the soluble fraction from the non-soluble fraction is performed by centrifugation (15 min at 18000 rpm) followed by filtration on PTFE 0.45 μm membrane. For the glycerin medium, 3 steps of centrifugation (15 mw at 18000 rpm) to collect the supernatant was performed. The resulting filtrates and supernatant for glycerin medium were diluted in appropriate solvents described in the following table to be in the range of calibration curve. Quantification of the diluted and undiluted samples was performed using UPLC-UV.
A standard calibration curve (chromatographic UV peak area vs concentration) between 0.5 μg/mL and 500 μg/mL was established in DMSO according to the following protocol. First, weighing 1 mg free base, then addition of DMSO until a 1 mg/mL clear DMSO Stock solution is obtained. Next, selected compound DMSO solutions at 5 different concentrations (500 ag/mL, 250 ag/mL, 100 ag/ml, 25 μg/ml and 0.5 μg/mL) were prepared by dilution with pure DMSO.
Samples were analysed by UPLC-UV-MS according to the following: (a) Instrument: Waters Acquity H-Class with PDA and QDa detectors; (b) Column: Waters Acquity BEH C18, 1.7 m, 2.1×50 mm; (c) Flow rate: 0.65 ml/min; (d) UV detection: 220 nm, 254 nm, 290 nm; (e) Column temperature: 40° C.; (f) Injection volume: 0.4 μl; (g) Mobile phase: Gradient with solutions A and B prepared according to Table 6; (h) Ionisation mode: ESI+/ESI−; (i) Source temperature: 600° C.; (j) Capillary voltage: 0.8 kV; and (k) Cone voltage: +20V/−20V.
(§1) The target concentration tested to measure the maximum solubility of the 3 salts (phosphate, malonate and malate) and free base in 6 different media was 30 mg/ml. Solids in suspension in water solubility assays have been collected by centrifugation (15 min at 18000 rpm) after 24 h stirring for XRPD analysis. Recorded XRPD patterns have been compared to the one recorded for the salts or free base as received (see FIGS. 8-11).

[2] = In vitro permeation testing in Franz cells; format: in vitro ADME; conditions: human abdominal skin, Franz cell
Description: In vitro permeation testing was performed using human abdominal skin from 3 donors and 2 samples per donor with a thickness of 400 μm (±100 μm). The samples were used in Franz cell 2 cm^2 of diameter and a receptor volume of 3 mL (PBS+4% BSA (Bovine Serum Albumin).
The receptor compartment was surrounded by a water jacket heated to 37° C.±1° C. insuring a skin surface temperature of 32° C.±1° C. The receptor compartment is separated from the donor compartment by the skin membrane where the epidermis side faces the donor. Receptor compartments containing magnetic stirrer bar, were filled with the receptor fluid in such a way to prevent any formation of air-bubbles. During the diffusion experiment, receptor fluids were continuously stirred in order to ensure homogenization.
Abdominal skins from aesthetic surgery were used in this study. Skins, upon arrival, were separated from hypodermis with the help of tweezers and a scalpel blade. Skins were gently washed and stored flat in aluminum foil for freezing at −20° C. At the day of experiment, skins were thawed then cut in smaller pieces to fit with diffusion cell geometry. In this experiment three donors were used. Skin specimens were mounted onto Franz diffusion cells with PBS+4% Bovine Serum Albumin as a receptor fluid. […]
Following at least 45 min equilibrium with receptor fluid, skin integrity is assessed by Transepidermal Water Loss (TEWL) measurements. […] TEWL is again measured and cells still depicting a high water flux are recorded. […] Individual TEWL values for each skin specimen used, room temperature and relative humidity were also recorded.
Test Items were applied at a dose of 5 mg/cm^2 for 24 hours on the skin samples in the Franz cell. At the end of exposure, the following samples were recovered: Stratum corneum (not analysed), epidermis, dermis and receptor fluid were collected analysed for API content.
The samples were analyzed following LC/MS/MS method internally certified. […] Percutaneous fluxes were calculated as the ratio of permeated amounts in receptor fluid (RF) of each individual cell to the duration of exposure (24 h).

[3] = XRPD analysis of solid residues collected from the water solubility assay; format: physicochemical; conditions: solids in suspension in water collected after 24 h stirring, compared to material as received
Description: XRPD analysis was conducted with a Bruker D8-Advance diffractometer, type: Bragg-Bentano. Source CuKα1, λ=1.5406 Å and CuKα2, λ2=1.54439 Å. Generator: 35 kV-40 mA. Detector: Lynx Eye.
The sample was analyzed using the following protocol: Around 3 mg of the test compound delivered as solid material is gently grounded to homogenize the powder and deposed on zero-diffraction Silicon sample holder. The sample holder is then placed in the X-Ray Diffractometer chamber.
The copper anode X-ray source is turned on using a generator set at 35 kV voltage and at 40 mA intensity. While X-ray beam irradiates the sample, both X-ray source and X-ray detector move on the goniometer with equal 0 angle: diffractometer in Bragg-Brentano configuration. XRPD pattern is recorded in the [2°; 40°] 2θ angle range by step of 0.040 in 20 and for 1 second at each angle step.
as §1

[4] = Glycerin/Water 5/95 (v/v), room temperature, 24 h
[5] = Glycerin/Water 10/90 (v/v), room temperature, 24 h
[6] = Glycerin/Water 20/80 (v/v), room temperature, 24 h
[7] = Transcutol/Water 10/90 (v/v), room temperature, 24 h
[8] = glycerin, room temperature, 24 h
[9] = water, orbital stirring at room temperature for 24 h
[10] = 5 mg/cm^2 for 24 hours, 0.63 w/w % phosphate salt vs 0.5 w/w % free base
[11] = Glycerin/Water 5/95 (v/v), aqueous with cosolvent or surfactant or cyclodextrin, Glycerin/Water 5/95 (v/v), room temperature, 24 h, read-out: Solubility, Glycerin/Water 5/95 (v/v)
[12] = Glycerin/Water 10/90 (v/v), aqueous with cosolvent or surfactant or cyclodextrin, Glycerin/Water 10/90 (v/v), room temperature, 24 h, read-out: Solubility, Glycerin/Water 10/90 (v/v)
[13] = Glycerin/Water 20/80 (v/v), aqueous with cosolvent or surfactant or cyclodextrin, Glycerin/Water 20/80 (v/v), room temperature, 24 h, read-out: Solubility, Glycerin/Water 20/80 (v/v)
[14] = Transcutol/Water 10/90 (v/v), aqueous with cosolvent or surfactant or cyclodextrin, Transcutol/Water 10/90 (v/v), room temperature, 24 h, read-out: Solubility, Transcutol/Water 10/90 (v/v)
[15] = glycerin, organic solvent or mixture, glycerin, room temperature, 24 h, read-out: Solubility, Glycerin
[16] = water, water, orbital stirring at room temperature for 24 h, read-out: Solubility, Water

SMILES | Solubility, Glycerin/Water 5/95 (v/v) [1, 4] | Solubility, Glycerin/Water 10/90 (v/v) [1, 5] | Solubility, Glycerin/Water 20/80 (v/v) [1, 6] | Solubility, Transcutol/Water 10/90 (v/v) [1, 7] | Solubility, Glycerin [1, 8] | Solubility, Water [1, 9] | ratio of percutaneous flux over dermis concentration, phosphate salt compared to free base [2, 10] | skin permeability coefficient (Kp), phosphate salt relative to free base [2, 10] | permeability of formulation compared to free base formulation ([2]; 24 hours, 10% w/w propylene glycol of the free base formulation replaced with water) | XRPD of solid residues in water [3] | solubility at 24 h [1, 11] | solubility at 24 h [1, 12] | solubility at 24 h [1, 13] | solubility at 24 h [1, 14] | solubility at 24 h [1, 15] | solubility at 24 h [1, 16]
CC(C)CC(C)n1nc(-c2ccc3oc(N)nc3c2)c2c(N)nc(N)nc21 (stereo not shown) [Phosphate Salt] | 4.3 ± 0.2 mg/mL | 4.7 ± 0.2 mg/mL | 5.7 ± 0.2 mg/mL | 5.5 ± 0.2 mg/mL | 15.8 ± 0.3 mg/mL | 3.9 ± 0.2 mg/mL | over 600 times | 3 times | superior permeability | No crystalline phase conversion |  |  |  |  |  | 
CC(C)CC(C)n1nc(-c2ccc3oc(N)nc3c2)c2c(N)nc(N)nc21.O=C(O)CC(=O)O (stereo not shown) [Malonate Salt] |  |  |  |  |  |  |  |  |  | Crystalline Phase conversion | 2700 ± 200 µg/mL | 2900 ± 200 µg/mL | 3500 ± 200 µg/mL | 3700 ± 200 µg/mL | 24700 ± 300 µg/mL | 2200 µg/mL
CC(C)CC(C)n1nc(-c2ccc3oc(N)nc3c2)c2c(N)nc(N)nc21.O=C(O)C[C@H](O)C(=O)O (stereo not shown) [Malate Salt] |  |  |  |  |  |  |  |  |  | No crystalline phase conversion | 2100 ± 300 µg/mL | 2200 ± 200 µg/mL | 2900 ± 200 µg/mL | 3100 ± 300 µg/mL | 21100 ± 200 µg/mL | 1600 µg/mL
CC(C)CC(C)n1nc(-c2ccc3oc(N)nc3c2)c2c(N)nc(N)nc21 (stereo not shown) [Free Base, 3-(2-Amino-1,3-benzoxazol-5-yl)-1-(1,3-dimethylbutyl)pyrazolo[3,4-d]pyrimidine-4,6-diamine] | 0.029 mg/mL | 0.045 mg/mL | 0.071 mg/mL | 0.256 mg/mL | 6.4 ± 0.3 mg/mL | 0.18 mg/mL |  |  |  | No crystalline phase conversion |  |  |  |  |  | 
